Test results taken from publication PMC4178217, “Quinoline 3-sulfonamides inhibit lactate dehydrogenase A and reverse aerobic glycolysis in cancer cells” (Cancer & Metabolism, 2013).

Test system: Snu398 cells
Assay: Compound cellular permeability assay, cytosolic extract
Type: in vitro ADME, human
Settings: Snu398 treated with 1 μM for 1.5 h, LC/MS/MS
Protocol: The medium was removed, cells were washed in phosphate-buffered saline (PBS), and cytosolic extracts were prepared by solubilization in Qproteome lysis buffer (Qiagen, Valencia, CA). […] The medium was removed, cells were washed in PBS and solubilized in 50:50 mixture of methanol and acetonitrile. Compound concentration in the cytosolic or whole-cell extract was determined by LC/MS/MS analysis. An Acquity UPLC system (Waters Inc., Milford, MA) was coupled to an API 4000 or API 5000 triple-quad mass spectrometer (Applied Biosystems). […] Compound concentration in cells was determined by counting the number of cells in sample wells and assuming 3 pL/cell volume.

COc1ncc(-c2ccc3c(Nc4cc(C(=O)O)cc(C5CCCC5)c4)c(S(=O)(=O)NC4CC4)cnc3c2)c(OC)n1 [Compound 2]
apparent intracellular concentration (cytosolic extract): 18 µM
